Results from US20250134870A1, “PATHWAY MODULATOR, PHARMACEUTICAL COMPOSITION HAVING SAME, USE THEREOF, AND THERAPEUTIC METHOD USING SAME” (Jiangsu Yahong Meditech Co., Ltd., priority 2021, published 2025).
Where two headings read alike, the source gives them in different places.

Legend:
[1] = tested on: peripheral blood cells; test: Bleomycin-induced skin fibrosis in mice: blood routine test of peripheral blood (Example 5); type: in vivo, male C57BL/6 mice
Description: Animals were weighed at the experimental endpoints and the body weight was recorded to calculate the volume of administration. 6 h after dosing, firstly, whole blood was collected from the orbital venous plexus of mice and subjected to blood routine test using an automated Hematology analyzer (Sysmex XS-800i). The specific test steps were as follows: the blood sample in the test tube was thoroughly mixed before testing; the sample was placed under the sampling needle, then injected by pressing the start button, and removed after indicator light of the instrument was off; the instrument started to automatically test the sample and output the results.

[2] = tested on: 2,4-dinitrobenzenesulfonic acid (DNBS)-induced colitis; test: DNBS-induced colitis in rats: macroscopic evaluation of colon on Day 7 (colon length, weight, ulcer area, CW/CL, CW/BW, CW/CL/BW); type: in vivo, Wistar rats; settings: for inhibition at 3 mg/kg / inhibition at 10 mg/kg / inhibition at 30 mg/kg: Rattus norvegicus, 168 h; for BW / CW/BW ×100 / Ulcer area / Ulcer length / Ulcer width: mean
Description: (3) Colon observation: after the end of the experiment, all animals were anesthetized with Zoletil (intravenous injection, 25 mg/kg) and the abdominal cavity was opened. Blood was collected from the abdominal aorta with EDTA anticoagulation (centrifugation conditions: 4° C., 2,000 g, 10 min). After the animals were sacrificed by bloodletting, the colon (from the cecum to the anus) was dissected and the colon length was measured immediately. The colon was longitudinally incised and rinsed until clean. Then the colon weight and ulcer area were recorded, and the colon was photographed as a whole and divided into three parts, among which two parts were stored at −80° C. after flash freezing with liquid nitrogen for MPO and cytokine detection, and the other part of colon was fixed with 10% neutral buffered formalin. If the ulcer was irregularly shaped, it could be considered as rectangular, and then its length and width were measured for ulcer area assessment. Ulcer area (cm^2)=ulcer length (cm)×ulcer width (cm).

[3] = tested on: dextran sulfate sodium (DSS)-induced colitis; test: DSS-induced colitis in mice: body weight, DAI score, colon density (Examples 1, 3); type: in vivo, C57BL/6J mice
Description: 8-10 week old female C57BL/6J mice purchased from Charles River Laboratories were used. The mice were housed in a room at constant temperature (20+2° C.) (5 mice per cage) with a 12-hour light-dark cycle. All protocols were approved by the Institutional Animal Care and Use Committee of WuXi AppTec. These mice were adapted to the housing conditions at the animal experiment center of WuXi AppTec for at least three days prior to the experiment. […] At the experimental endpoint (see hereinafter), mice were euthanized and endpoint samples were obtained. Mice in the normal group were not given 3% DSS aqueous solution to induce colitis and were free to drink blank water. […] The animal body weight and DAI score were assessed under double-blind conditions, that is, the researchers collected the body weight data of mice and observed and scored the stool characteristics and blood stools every day, without knowing the group and dosing regimen. The DAI score was the sum of the weight loss score, stool score and bleeding score. […] The data were analyzed by analysis of variance, specifically by using the following process: using Graph Pad Prism 6.0 software to carry out post-hoc Dunnett's multiple comparison test. […] Data were expressed as mean±S.E.M. The experimental endpoint was 24 hours after administration on Day 8 for the positive drug control group and the Test group 1 #to Test group 7 #of Example 1; the experimental endpoint of the normal group and the solvent group was the same as that of the positive drug control group and Test group 1 #to Test group 7 #.

[4] = tested on: cocaine dependence; settings: used in combination with cocaine; cited from earlier work
[5] = tested on: NMO-IgG-induced neuromyelitis optica; test: NMO-IgG-induced neuromyelitis optica (NMO) in mice: AQP4, GFAP, IBA1, CD45 (Example 7); type: in vivo, C57 mice; settings: 50 and 100 mg/kg PO QD × 10 days
Description: 1) C57 female mice (6 to 8 weeks old) were anesthetized with intraperitoneal injection of 5% chloral hydrate (70 μL/10 g).
2) Fur of the top of head was removed to expose the scalp. The mouse head was fixed on the brain stereotaxic apparatus, keeping the top of the skull horizontal. The scalp was disinfected with iodophor.
3) The scalp was cut lengthwise for about 0.5 cm to search for the anterior and posterior fontanelle areas. The stereotaxic caliper was rotated to move the needle tip of trace syringe to the anterior and posterior fontanelle areas, and the mouse skull was kept horizontal by observing the distance from Bregma and Lambda to the needle tip. After horizontal adjustment, the needle tip was moved to Bregma and then moved 2 mm to the right to reach the position.
4) The position on the surface of the mouse skull was marked and a hole was drilled at this point with a skull drill. During drilling, blood vessels should be avoided and drilling should be continued carefully to avoid damaging the duramater and brain tissue.
5) The trace syringe was vertically introduced into the mouse brain tissue using the stereotaxic apparatus with a vertical needle depth of 3 mm. The syringe was kept in place and maintained for 5 min.
6) The syringe pump was turned on, the Infuse Only mode was selected, and the solution (2 μL NMO-IgG+3 μL human complement+5 μL PBS/drug, mixed and pipetted well in advance, and placed on ice) was injected at a speed of […].
7) After the injection was completed, the syringe was maintained for 10 min. The syringe was slowly pulled upward by rotating the caliper, and maintained for 5 min after moving 1 mm upward, until the syringe was completely pulled out. The skin was sutured and disinfected again with iodophor.
Dosing started 3 days before model establishment and lasted until 7 days after model establishment, for 10 consecutive days.
On Day 8 after model establishment (i.e., the day after the last dose), the experimental mice were euthanized and brain tissue was collected for frozen sections. Then, the immune response area of astrocyte markers in each group of mice was determined and evaluated (see the reference Ye Gong et al., Journal of Neuroinflammation, 17 (1). doi:10.1186/s12974-020-01874-6 for experimental methods).

[6] = 100 mg/kg PO QD, 28 days (Test group 3#) vs solvent group
[7] = G4 Test group 1#, 3 mg/kg PO QD × 7
[8] = G5 Test group 2#, 10 mg/kg PO QD × 7
[9] = G6 Test group 3#, 30 mg/kg PO QD × 7

What does the source list for `NCc1c[nH]c(=S)n1[C@H]1CCc2c(F)cc(F)cc2C1` [Nepicastat]?
lymphocytes in peripheral blood [1, 6]: significant differences in reducing; monocytes in peripheral blood [1, 6]: significant differences in reducing; neutrophils in peripheral blood [1, 6]: significant differences in reducing; number of increased inflammatory cells in peripheral blood after bleomycin stimulation ([1]; 50 and 100 mg/kg PO QD, 28 days (Test groups 2#, 3#)): reduce the number of increased inflammatory cells in peripheral blood; inhibition at 3 mg/kg ([2]; 3 mg/kg (Test group 1#), read-out: inhibition rate of CW/BW): 40.2%; inhibition at 3 mg/kg ([2]; 3 mg/kg (Test group 1#), read-out: inhibition rate of CW/CL): 30.8%; inhibition at 3 mg/kg ([2]; 3 mg/kg (Test group 1#), read-out: inhibition rate of CW/CL/BW): 33%; inhibition at 10 mg/kg ([2]; 10 mg/kg (Test group 2#), read-out: inhibition rate of CW/BW): 47.1%; inhibition at 10 mg/kg ([2]; 10 mg/kg (Test group 2#), read-out: inhibition rate of CW/CL): 43.8%; inhibition at 10 mg/kg ([2]; 10 mg/kg (Test group 2#), read-out: inhibition rate of CW/CL/BW): 45%; inhibition at 30 mg/kg ([2]; 30 mg/kg (Test group 3#), read-out: inhibition rate of CW/BW): 39.9%; inhibition at 30 mg/kg ([2]; 30 mg/kg (Test group 3#), read-out: inhibition rate of CW/CL): 26.7%; inhibition at 30 mg/kg ([2]; 30 mg/kg (Test group 3#), read-out: inhibition rate of CW/CL/BW): 27.1%; inhibition at 3 mg/kg ([2]; G4 Test group 1#, 3 mg/kg PO QD × 7, read-out: IR1 (inhibition rate 1, CW/CL/BW)): 33%; inhibition at 3 mg/kg ([2]; G4 Test group 1#, 3 mg/kg PO QD × 7, read-out: IR2 (inhibition rate 2, CW/BW)): 40.2%; inhibition at 3 mg/kg ([2]; G4 Test group 1#, 3 mg/kg PO QD × 7, read-out: IR3 (inhibition rate 3, CW/CL)): 30.8%; inhibition at 10 mg/kg ([2]; G5 Test group 2#, 10 mg/kg PO QD × 7, read-out: IR1 (inhibition rate 1, CW/CL/BW)): 45%; inhibition at 10 mg/kg ([2]; G5 Test group 2#, 10 mg/kg PO QD × 7, read-out: IR2 (inhibition rate 2, CW/BW)): 47.1%; inhibition at 10 mg/kg ([2]; G5 Test group 2#, 10 mg/kg PO QD × 7, read-out: IR3 (inhibition rate 3, CW/CL)): 43.8%; inhibition at 30 mg/kg ([2]; G6 Test group 3#, 30 mg/kg PO QD × 7, read-out: IR1 (inhibition rate 1, CW/CL/BW)): 27.1%; inhibition at 30 mg/kg ([2]; G6 Test group 3#, 30 mg/kg PO QD × 7, read-out: IR2 (inhibition rate 2, CW/BW)): 39.9%; inhibition at 30 mg/kg ([2]; G6 Test group 3#, 30 mg/kg PO QD × 7, read-out: IR3 (inhibition rate 3, CW/CL)): 26.7%; BW [2, 7]: 168.65 g; CW/BW ×100 [2, 7]: 1.05; Ulcer area [2, 7]: 1.36 cm^2; Ulcer length [2, 7]: 1.08 cm; Ulcer width [2, 7]: 0.87 cm; BW [2, 8]: 169.54 g; CW/BW ×100 [2, 8]: 1.01; Ulcer area [2, 8]: 1.17 cm^2; Ulcer length [2, 8]: 0.97 cm; Ulcer width [2, 8]: 0.73 cm; BW [2, 9]: 164.62 g; CW/BW ×100 [2, 9]: 1.05; Ulcer area [2, 9]: 1.35 cm^2; Ulcer length [2, 9]: 1.09 cm; Ulcer width [2, 9]: 0.95 cm; Body weight on Day 7, g ([3]; 30 mg/kg PO QD × 8 days): 19.71 g; Body weight on Day 8, g ([3]; 30 mg/kg PO QD × 8 days): 18.88 g; Body weight on Day 8/initial body weight, % ([3]; 30 mg/kg PO QD × 8 days): 90.68%; DAI score on Day 8 ([3]; 30 mg/kg PO QD × 8 days): 5.30; severity of DSS-induced colitis and disease activity ([3]; Nepicastat 30, Etamicastat 100, Zamicastat 100 mg/kg PO QD × 8 days (Test groups 1#, 4#, 7#) vs solvent group): ameliorated the severity of DSS-induced colitis and reduced disease activity; positive effects of cocaine [4]: inhibit the positive effects of cocaine; effect on NMO-IgG-induced neuromyelitis optica in mice [5]: certain inhibitory effect; immune parameter CD45 [5]: no significant effect; immune parameter IBA1 [5]: no significant effect; lesion ratio of AQP4 ([5]; vs control group): significantly reduce the lesion ratio; lesion ratio of GFAP ([5]; vs control group): significantly reduce the lesion ratio
